# Article PMC11149917, “Translational and Therapeutic Evaluation of RAS-GTP Inhibition by RMC-6236 in RAS-Driven Cancers” (Cancer Discovery, 2024)
# Assays:
# [1] = system: PRISM panel of 845 cancer cell lines; assay: PRISM assay; assay type: cell-based, human
# Method: The PRISM cell set comprised 845 cell lines representing more than 45 lineages (see Supplementary Table S1 for cell line information), which largely overlapped with the Cancer Cell Line Encyclopedia; https://portals.broadinstitute.org/ccle). Cell lines were grown in RPMI without phenol red and supplemented with 10% or 20% FBS for adherent and suspended lines, respectively. Parental cell lines were stably infected with a unique 24-nucleotide DNA barcode via lentiviral transduction and blasticidin selection. After selection, barcoded cell lines were expanded and subjected to quality control (Mycoplasma contamination test, an SNP test for confirming cell line identity, and barcode ID confirmation). Approved cell lines were then pooled (20–25 cell lines per pool) based on doubling time similarity and frozen in assay-ready vials.
# RMC-6236 was added to 384-well plates at 8-point concentration with 3-fold dilutions in triplicate. These assay-ready plates were then seeded with the thawed cell line pools. Adherent cell pools were plated at 1,250 cells per well, whereas suspension and mixed adherent/suspension pools were plated at 2,000 cells per well. Treated cells were incubated for 5 days, and then lysed. Lysate plates were collapsed together prior to barcode amplification and detection.
# Each cell line's unique barcode is located in the 3′UTR of the blasticidin-resistance gene and therefore is expressed as mRNA. Total mRNA was captured using magnetic particles that recognize polyA sequences. Captured mRNA was reverse-transcribed into cDNA and then the sequence containing the unique PRISM barcode was amplified using PCR. Finally, Luminex beads that recognize the specific barcode sequences in the cell set were hybridized to the PCR products and detected using a Luminex scanner which reports the signal as a median fluorescent intensity (MFI).
# • Each detection well contained 10 control barcodes in increasing abundances as spike-in controls. For each plate, we first create a reference profile by calculating the median of the log2(MFI) values across negative control wells for each of these spiked-in barcodes. • For each well, a monotonic smooth p-spline was fitted to map the spike-in control levels to the reference profile. Next, we transform the log2(MFI) for each cell barcode using the fitted spline to allow well-to-well comparisons by correcting for amplification and detection artifacts. • Next, the separability between negative and positive control treatments was assessed. In particular, we calculated the error rate of the optimum simple threshold classifier between the control samples for each cell line and plate combination. The error rate is a measure of the overlap of the two control sets and was defined as error = (FP + FN)/n, where FP is false positives, FN is false negatives, and n is the total number of controls. A threshold was set between the distributions of positive and negative control log2(MFI) values (with everything below the threshold said to be positive and above said to be negative) such that this value is minimized. Additionally, we also calculated the dynamic range of each cell line. […] Additionally, any cell line that had less than 2 passing replicates was also omitted for the sake of reproducibility. Finally, we computed viability by normalizing with respect to the median negative control for each plate.
# For every gene with nonsilent mutations in at least four cell lines, we compared the AUC values between cells with and without those mutations using a t test. This analysis was carried out for (i) the full data set; (ii) excluding cell lines with nonsilent KRAS mutations; and (iii) excluding cell lines that have either KRAS or NRAS nonsilent mutations.
# [2] = system: DUSP6 mRNA in human tumors; set-up: method as in IND M4 report; settings: Human PK Model Parameters; apparent value; ref IND M4 report; cited from earlier work
compound,measurement,setting,value
CCn1c(-c2cc(N3CCN(C)CC3)cnc2[C@H](C)OC)c2c3cc(ccc31)-c1csc(n1)C[C@H](NC(=O)[C@H]1C[C@@H]1C)C(=O)N1CCC[C@H](N1)C(=O)OCC(C)(C)C2 [RMC-6236],RMC-6236: RevMed PRISM: AUC,[1]; LS_AUTONOMIC_GANGLIA,1
same,RMC-6236: RevMed PRISM: AUC,"[1]; MCAS_OVARY, KRAS p.G12D",0.5822
same,RMC-6236: RevMed PRISM: AUC,[1]; MDAMB361_BREAST,0.8463
same,RMC-6236: RevMed PRISM: AUC,[1]; MG63_BONE,0.9083
same,RMC-6236: RevMed PRISM: AUC,"[1]; MIAPACA2_PANCREAS, KRAS p.G12C",0.3158
same,RMC-6236: RevMed PRISM: AUC,[1]; MKN1_STOMACH,0.8375
same,RMC-6236: RevMed PRISM: AUC,[1]; MMNK1_BILIARY_TRACT,1
same,RMC-6236: RevMed PRISM: AUC,[1]; MOLP2_HAEMATOPOIETIC_AND_LYMPHOID_TISSUE,0.8941
same,RMC-6236: RevMed PRISM: AUC,"[1]; NCIH1373_LUNG, KRAS p.G12C",0.5175
same,RMC-6236: RevMed PRISM: AUC,[1]; NCIH1623_LUNG,0.9336
same,RMC-6236: RevMed PRISM: AUC,"[1]; NCIH1792_LUNG, KRAS p.G12C",0.4194
same,RMC-6236: RevMed PRISM: AUC,"[1]; NCIH1944_LUNG, KRAS p.G13D",0.6749
same,RMC-6236: RevMed PRISM: AUC,[1]; NCIH2110_LUNG,0.7265
same,RMC-6236: RevMed PRISM: AUC,[1]; NCIH2170_LUNG,0.8266
same,RMC-6236: RevMed PRISM: AUC,"[1]; NOZ_LIVER, KRAS p.G12V",0.4128
same,RMC-6236: RevMed PRISM: AUC,[1]; NP3_CENTRAL_NERVOUS_SYSTEM,0.8074
same,RMC-6236: RevMed PRISM: AUC,[1]; NUGC4_STOMACH,0.5513
same,RMC-6236: RevMed PRISM: AUC,[1]; OE21_OESOPHAGUS,0.7641
same,RMC-6236: RevMed PRISM: AUC,[1]; OSRC2_KIDNEY,0.9503
same,RMC-6236: RevMed PRISM: AUC,[1]; OVKATE_OVARY,0.9428
same,RMC-6236: RevMed PRISM: AUC,"[1]; PL21_HAEMATOPOIETIC_AND_LYMPHOID_TISSUE, KRAS p.A146V",0.4905
same,RMC-6236: RevMed PRISM: AUC,"[1]; PSN1_PANCREAS, KRAS p.G12R",0.3382
same,RMC-6236: RevMed PRISM: AUC,[1]; RDES_BONE,0.8941
same,RMC-6236: RevMed PRISM: AUC,[1]; RERFLCKJ_LUNG,0.8815
same,RMC-6236: RevMed PRISM: AUC,"[1]; RKN_SOFT_TISSUE, KRAS p.G12V",0.3219
same,RMC-6236: RevMed PRISM: AUC,[1]; RL_HAEMATOPOIETIC_AND_LYMPHOID_TISSUE,0.8075
same,RMC-6236: RevMed PRISM: AUC,[1]; SKES1_BONE,0.8643
same,RMC-6236: RevMed PRISM: AUC,[1]; SKGT2_STOMACH,0.6916
same,RMC-6236: RevMed PRISM: AUC,[1]; SKHEP1_LIVER,0.8776
same,RMC-6236: RevMed PRISM: AUC,"[1]; SNU601_STOMACH, KRAS p.G12D",0.4515
same,RMC-6236: RevMed PRISM: AUC,[1]; SNU1076_UPPER_AERODIGESTIVE_TRACT,0.4839
same,RMC-6236: RevMed PRISM: AUC,[1]; SNU1079_BILIARY_TRACT,0.8678
same,RMC-6236: RevMed PRISM: AUC,[1]; SR786_HAEMATOPOIETIC_AND_LYMPHOID_TISSUE,0.7042
same,RMC-6236: RevMed PRISM: AUC,[1]; SUDHL4_HAEMATOPOIETIC_AND_LYMPHOID_TISSUE,0.8448
same,RMC-6236: RevMed PRISM: AUC,[1]; SUDHL8_HAEMATOPOIETIC_AND_LYMPHOID_TISSUE,1
same,RMC-6236: RevMed PRISM: AUC,"[1]; SUIT2_PANCREAS, KRAS p.G12D",0.6849
same,RMC-6236: RevMed PRISM: AUC,"[1]; SW626_LARGE_INTESTINE, KRAS p.G12V",0.3255
same,RMC-6236: RevMed PRISM: AUC,"[1]; SW1271_LUNG, NRAS p.Q61R",0.6986
same,RMC-6236: RevMed PRISM: AUC,[1]; TC106_BONE,0.7285
same,RMC-6236: RevMed PRISM: AUC,[1]; TE8_OESOPHAGUS,0.7048
same,RMC-6236: RevMed PRISM: AUC,[1]; TT_THYROID,1
same,RMC-6236: RevMed PRISM: AUC,[1]; U2973_HAEMATOPOIETIC_AND_LYMPHOID_TISSUE,1
same,RMC-6236: RevMed PRISM: AUC,[1]; UMUC6_URINARY_TRACT,0.4621
same,RMC-6236: RevMed PRISM: AUC,[1]; UMUC10_URINARY_TRACT,0.7756
same,RMC-6236: RevMed PRISM: AUC,[1]; UMUC11_URINARY_TRACT,0.952
same,RMC-6236: RevMed PRISM: AUC,[1]; VAL_HAEMATOPOIETIC_AND_LYMPHOID_TISSUE,0.8667
same,RMC-6236: RevMed PRISM: AUC,[1]; YD10B_UPPER_AERODIGESTIVE_TRACT,0.5303
same,RMC-6236: RevMed PRISM: AUC,[1]; YD38_UPPER_AERODIGESTIVE_TRACT,0.4476
same,RMC-6236: RevMed PRISM: AUC,[1]; […]02ER_ENDOMETRIUM,0.8144
same,Median AUC (PRISM),[1]; mutant copy number gained KRAS,0.54
same,Median AUC (PRISM),[1]; wild-type KRAS cell lines,0.78
same,Median AUC (PRISM),[1]; wild-type copy number gained KRAS,0.84
same,V/F,[2],10.828 L/kg
